Laboratory results: patent US20250109127A1, “METHODS OF USE OF PHENOXYPROPYLAMINE COMPOUNDS TO TREAT DEPRESSION” (Minerva Neurosciences, Inc., priority 2013, published 2025)
Values joined by “and” are separate entries in the source; they are usually repeats but may differ in a detail not shown here. Equal values may be shown once. Where a name gives a salt, the structure may show the parent alone.

System: 5-HT release in the rat prefrontal cortex
Experiment: Microdialysis: 5-HT release in prefrontal cortex after I.P. administration
Format: in vivo
Settings: for 5-HT (% of respective basal), individual animal: 0.1 mg/kg I.P., c2-c9 = R#13,14,20,19,25,26,31,32; for 5-HT (% of respective basal), individual animal / 5-HT release, individual animals: hydrochloride; for 5-HT release, MEAN / 5-HT release, individual animals: 0.3 mg/kg I.P.; for 5-HT release, MEAN: n = 8; for 5-HT release, individual animals: one column per animal R#11,12,18,23,29,30,17,24
Description: The aim of the study was to evaluate, using microdialysis, the effects of an intraperitoneal (I.P.) administration in rats of three different doses of SON-117 on dopamine and its metabolites, serotonin and its metabolite (5-HIAA), and norepinephrine levels in prefrontal cortex.
Thirty-two adult male Wistar rats were used for the whole study (4 groups of eight animals planned for the study, Table 1).
Surgery was performed on rats weighing about 300 g at the beginning of the experiments. Rats were anaesthetized with Ketamine (50 mg/kg) & Xylazine (15 mg/kg) by intramuscular administration. The animals were placed in a stereotaxic apparatus in the flat-skull position at a constant setting of −3.3 mm between ear bars and the incisor bar. The animals were treated with a local anesthesic (xylocaine 1%, Astra Zeneca) and an analgesic (Temgesic, from Schering Plough, 0.05 mg/kg, s.c.). A rostrocaudal midline incision was made with a lancet to expose the dorsal skull surface. The “stereotaxic zero” was defined by the Bregma in accordance with Paxinos and Watson's atlas (1986). A hole was drilled in the skull with a drill and the meninges were pierced with a sterile needle to implant a CMA12 guide cannula which later received the dialysis probe.
Coordinates used for implanting guide cannula in prefrontal cortex from Bregma were anteroposterior 3.7 mm, mediolateral 0.8 mm, and dorsoventral −2 mm (top of the probe was at −5 mm). The guide cannula was fixed to the skull with two stainless steel screws (1.88 mm outside diameter) anchored. An application of dental cement was added. A plastic collar allowed each animal to be tethered to a Swivel assembly of the CMA 120 awake animal system. Following surgery, rats were kept in individual cages and allowed to recover for a minimum of 3-5 days before the experimentation. The rats were handled and put in plastic bowl for 10 min at least every day to habituate the animals to their new environment for the dialysis. An I.P. administration with saline was also performed every day.
Dialysis probes (CMA12/3 mm, membrane, 20 kD cut-off, Carnegie Medicine, Stockholm, Sweden), were carefully washed before inserting into the guide cannula. The wash was performed with the artificial cerebrospinal fluid (aCSF) medium (NaCl 147 mM, KCl 2.7 mM, CaCl2 1.2 mM, MgCl2 0.85 mM) at room temperature. The dialysis system was then equilibrated at 20° C. at a perfusion rate of 1 μl/min with a Carnegie pump (CMA100). All catheters (FEP tubing, internal volume of 1.2 μl/10 cm, and tubing adaptors) used for microdialysis were treated in the same conditions.
The probes duly prepared were inserted into the guide cannula and the CMA120 Swivel assembly secured to the animal using a plastic collar. Flow through the dialysis probe with aCSF was maintained at a rate of 1 μl/min during the whole experimentation. The first four fractions (corresponding to 2 hours) were discarded to avoid the effects of parenchymal disturbance and to ensure that an approximate steady-state level was reached. Fractions were then collected over a period of 8.5 h during which time the animals remained quiet. The dialysates were automatically collected with an autosampler (microfraction collector CMA 140, Carnegie Medicin) and stored at −80° C. until analysis. […] Perfusion was then maintained for 7 hours with aCSF. The dialysates (30 μl) were collected into 300 μl vials, transferred into dry ice and then kept frozen (−80° C.) until analysis. Frozen samples were shipped to a partner for analysis. At the end of the microdialysis study, a PBS with colored ink was perfused through the probe in order to visualize the dialyzed area.
Catecholamine assay: Concentrations of dopamine, DOPAC, HVA, 5-HIAA, 5-HT, and norepinephrin were determined for each sample by HPLC coupled with electrochemical detection. […]

For `Cc1nnc(-c2cc3c(OC[C@@H](O)CN4CCC(c5ccc(Cl)c(Cl)c5)CC4)cccc3o2)o1` [SON-117, (S)-1-(4-(3,4-dichlorophenyl)piperidino)-3-(2-(5-methyl-1,3,4-oxadiazol-2-yl)benzo(b)furan-4-yloxy)-2-propanol hydrochloride], the “5-HT (% of respective basal), individual animal” value (“5-HT (% of respective basal)” for short) (T30-T1 h) was 69.00 % of respective basal and 117.47 % of respective basal and 153.30 % of respective basal and 119.68 % of respective basal and 228.97 % of respective basal and 127.98 % of respective basal and 113.81 % of respective basal and 57.12 % of respective basal, the “5-HT (% of respective basal)” value (T1 h 30-T2 h) was 92.30 % of respective basal and 410.73 % of respective basal and 162.34 % of respective basal and 123.16 % of respective basal and 77.29 % of respective basal and 149.14 % of respective basal and 262.61 % of respective basal and 62.56 % of respective basal and the “5-HT (% of respective basal)” value (T1 h-T1 h 30) was 84.80 % of respective basal and 173.62 % of respective basal and 140.43 % of respective basal and 113.99 % of respective basal and 98.07 % of respective basal and 572.83 % of respective basal and 162.09 % of respective basal and 62.45 % of respective basal. For the same compound, the “5-HT (% of respective basal)” value (T2 h 30-T3 h) was 51.79 % of respective basal and 182.3 % of respective basal and 109.29 % of respective basal and 102.05 % of respective basal and 101.27 % of respective basal and 528.93 % of respective basal and 86.68 % of respective basal and 564.06 % of respective basal, the “5-HT (% of respective basal)” value (T2 h-T2 h 30) was 82.11 % of respective basal and 59.17 % of respective basal and 129.41 % of respective basal and 112.33 % of respective basal and 523.12 % of respective basal and 458.59 % of respective basal and 127.80 % of respective basal and 1473.07 % of respective basal and the “5-HT (% of respective basal)” value (T3 h 30-T4 h) was 74.33 % of respective basal and 66.30 % of respective basal and 153.79 % of respective basal and 155.51 % of respective basal and 132.93 % of respective basal and 131.96 % of respective basal and 93.88 % of respective basal and 405.95 % of respective basal. The “5-HT (% of respective basal)” value (T3 h-T3 h 30) was 72.21 % of respective basal and 249.58 % of respective basal and 128.14 % of respective basal and 138.05 % of respective basal and 139.82 % of respective basal and 122.70 % of respective basal and 103.66 % of respective basal and 298.06 % of respective basal, the “5-HT (% of respective basal)” value (T4 h 30-T5 h) was 79.25 % of respective basal and 111.21 % of respective basal and 188.06 % of respective basal and 105.16 % of respective basal and 99.59 % of respective basal and 221.4 % of respective basal and 113.08 % of respective basal and 1455.86 % of respective basal and the “5-HT (% of respective basal)” value (T4 h-T4 h 30) was 10.23 % of respective basal and 242.01 % of respective basal and 138.36 % of respective basal and 81.92 % of respective basal and 75.44 % of respective basal and 312.84 % of respective basal and 89.43 % of respective basal and 1851.01 % of respective basal. The “5-HT (% of respective basal)” value (T5 h 30-T6 h) was 18.22 % of respective basal and 541.94 % of respective basal and 112.81 % of respective basal and 91.86 % of respective basal and 67.97 % of respective basal and 390.29 % of respective basal and 95.06 % of respective basal and 682.45 % of respective basal, the “5-HT (% of respective basal)” value (T5 h-T5 h 30) was 106.82 % of respective basal and 610.15 % of respective basal and 166.13 % of respective basal and 112.99 % of respective basal and 48.55 % of respective basal and 433.73 % of respective basal and 103.27 % of respective basal and 900.33 % of respective basal and the “5-HT (% of respective basal)” value (T6 h 30-T7 h) was 76.67 % of respective basal and 764.86 % of respective basal and 75.95 % of respective basal and 109.17 % of respective basal. For the same compound, the “5-HT (% of respective basal)” value (T6 h-T6 h 30) was 98.17 % of respective basal and 780.23 % of respective basal and 117.32 % of respective basal and 105.66 % of respective basal and 44.34 % of respective basal and 387.64 % of respective basal and 93.11 % of respective basal and 410.53 % of respective basal, the “5-HT release, MEAN” value (T0-T30 min) was 119.65 % of respective basal and the “5-HT release, MEAN” value (T30-T1 h) was 111.24 % of respective basal. For the same compound, the “5-HT release, individual animals” value (T30-T1 h) was 160.62 % of respective basal and 82.62 % of respective basal and 90.53 % of respective basal and 121.61 % of respective basal and 144.48 % of respective basal and 187.01 % of respective basal and 55.67 % of respective basal and 47.37 % of respective basal, the “5-HT release, MEAN” value (T1 h 30-T2 h) was 114.14 % of respective basal and the “5-HT release, individual animals” value (T1 h 30-T2 h) was 181.24 % of respective basal and 97.85 % of respective basal and 76.79 % of respective basal and 83.68 % of respective basal and 125.63 % of respective basal and 123.37 % of respective basal and 24.18 % of respective basal and 200.38 % of respective basal. For the same compound, the “5-HT release, MEAN” value (T1 h-T1 h 30) was 144.23 % of respective basal, the “5-HT release, individual animals” value (T1 h-T1 h 30) was 149.89 % of respective basal and 128.02 % of respective basal and 96.66 % of respective basal and 76.75 % of respective basal and 140.12 % of respective basal and 235.56 % of respective basal and 63.72 % of respective basal and 263.12 % of respective basal and the “5-HT release, MEAN” value (T2 h 30-T3 h) was 126.37 % of respective basal. For the same compound, the “5-HT release, individual animals” value (T2 h 30-T3 h) was 96.77 % of respective basal and 104.38 % of respective basal and 101.02 % of respective basal and 167.96 % of respective basal and 125.41 % of respective basal and 206.04 % of respective basal and 42.18 % of respective basal and 167.18 % of respective basal, the “5-HT release, MEAN” value (T2 h-T2 h 30) was 106.16 % of respective basal and the “5-HT release, individual animals” value (T2 h-T2 h 30) was 111.34 % of respective basal and 124.56 % of respective basal and 108.53 % of respective basal and 74.72 % of respective basal and 123.51 % of respective basal and 215.61 % of respective basal and 33.60 % of respective basal and 57.37 % of respective basal. The “5-HT release, MEAN” value (T3 h 30-T4 h) was 133.06 % of respective basal.
